Read-outs that look alike come from different tables or passages of the source.
What was measured:
Assay type in all cases: cell-based
[1] = system: Burkholderia thailandensis
[2] = system: Pseudomonas aeruginosa; test: Antibacterial assay zone of inhibition Pa
[3] = system: Micrococcus luteus; test: Antibacterial assay zone of inhibition Ml
[4] = system: Klebsiella pneumonia; test: Antibacterial assay zone of inhibition Kp
[5] = system: Escherichia coli; test: Antibacterial assay zone of inhibition Ec
[6] = system: Bacillus cereus; test: Antibacterial assay zone of inhibition Bc
[7] = system: Mycobacterium smegmatis; test: Antibacterial assay zone of inhibition Ms
[8] = system: Corynebacterium xerosis; test: Antibacterial assay zone of inhibition Cx
[9] = system: Corynebacterium pseudodiphtheriae; test: Antibacterial assay zone of inhibition Cp

Compound | Antibacterial Pa zone of inhibition ([2]; 0.1 mM) [millimeters] | Antibacterial Pa zone of inhibition ([2]; 0.5 mM) [millimeters] | Antibacterial Pa zone of inhibition ([2]; 1 mM) [millimeters] | Antibacterial Ml zone of inhibition ([3]; 0.1 mM) [millimeters] | Antibacterial Ml zone of inhibition ([3]; 0.5 mM) [millimeters] | Antibacterial Ml zone of inhibition ([3]; 1 mM) [millimeters] | Antibacterial Kp zone of inhibition ([4]; 0.1 mM) [millimeters] | Antibacterial Kp zone of inhibition ([4]; 0.5 mM) [millimeters] | Antibacterial Kp zone of inhibition ([4]; 1 mM) [millimeters] | Antibacterial Ec zone of inhibition ([5]; 0.1 mM) | Antibacterial Ec zone of inhibition ([5]; 0.5 mM) | Antibacterial Bc zone of inhibition ([6]; 0.1 mM) [millimeters] | Antibacterial Bc zone of inhibition ([6]; 0.5 mM) [millimeters] | Antibacterial Bc zone of inhibition ([6]; 1 mM) [millimeters] | Antibacterial Ms zone of inhibition ([7]; 0.1 mM) [millimeters] | Antibacterial Ms zone of inhibition ([7]; 0.5 mM) [millimeters] | Antibacterial Ms zone of inhibition ([7]; 1 mM) [millimeters] | Antibacterial Cx zone of inhibition ([8]; 0.1 mM) [millimeters] | Antibacterial Cx zone of inhibition ([8]; 0.5 mM) [millimeters] | Antibacterial Cx zone of inhibition ([8]; 1 mM) [millimeters] | also measured
Clc1ccc(OCc2nnc(-c3nc4ccccc4s3)o2)cc1Cl [HGN-834] | 0 | 0 | 0 | 0 | 0 | 0 | 0 | 0 | 0 | 0 millimeters | 0 millimeters | 0 | 11 | 18 | 0 | 0 | 0 | 0 | 0 | 0 | Antibacterial Bt zone of inhibition ([1]; 0.1 mM): 0 millimeters; Antibacterial Bt zone of inhibition ([1]; 0.5 mM): 0 millimeters; Antibacterial Bt zone of inhibition ([1]; 1 mM): 0 millimeters; Antibacterial Ec zone of inhibition ([5]; 1 mM): 0 millimeters; Antibacterial Cp zone of inhibition ([9]; 0.1 mM): 0 millimeters; Antibacterial Cp zone of inhibition ([9]; 0.5 mM): 0 millimeters; Antibacterial Cp zone of inhibition ([9]; 1 mM): 0 millimeters
Clc1cccc(OCc2nnc(-c3nc4ccccc4s3)o2)c1 [HGN-835] | 0 | 0 | 0 | 0 | 0 | 14 | 0 | 14 | 18 | 0 millimeters | 0 millimeters | 0 | 14 | 20 | 0 | 0 | 0 | 0 | 0 | 0 | Antibacterial Bt zone of inhibition ([1]; 0.1 mM): 0 12.5 18 millimeters; Antibacterial Bt zone of inhibition ([1]; 0.5 mM): 0 12.5 18 millimeters; Antibacterial Bt zone of inhibition ([1]; 1 mM): 0 12.5 18 millimeters; Antibacterial Ec zone of inhibition ([5]; 1 mM): 0 millimeters; Antibacterial Cp zone of inhibition ([9]; 0.1 mM): 0 millimeters; Antibacterial Cp zone of inhibition ([9]; 0.5 mM): 0 millimeters; Antibacterial Cp zone of inhibition ([9]; 1 mM): 0 millimeters
CC(C)(C)c1ccc(OCc2nnc(-c3nc4ccccc4s3)o2)cc1 [HGN-836] | 0 | 0 | 0 | 0 | 0 | 0 | 0 | 0 | 7 | 0 NT millimeters | 0 NT millimeters | 0 | 0 | 13 | 0 | 0 | 0 | 0 | 0 | 11 | Antibacterial Bt zone of inhibition ([1]; 0.1 mM): 0 15 18 millimeters; Antibacterial Bt zone of inhibition ([1]; 0.5 mM): 0 15 18 millimeters; Antibacterial Bt zone of inhibition ([1]; 1 mM): 0 15 18 millimeters; Antibacterial Cp zone of inhibition ([9]; 0.1 mM): 0 millimeters; Antibacterial Cp zone of inhibition ([9]; 0.5 mM): 0 millimeters; Antibacterial Cp zone of inhibition ([9]; 1 mM): 0 millimeters
Cc1cccc(OCc2nnc(-c3nc4ccccc4s3)o2)c1 [HGN-837] | 0 | 0 | 0 | 0 | 6 | 10 | 0 | 0 | 0 | 0 millimeters | 10 millimeters | 0 | 13 | 19 | 0 | 0 | 0 | 0 | 11 | 17 | Antibacterial Bt zone of inhibition [1]: 0 13 19.5 millimeters; Antibacterial Ec zone of inhibition ([5]; 1 mM): 17 millimeters; Antibacterial Cp zone of inhibition ([9]; 0.1 mM): 0 millimeters; Antibacterial Cp zone of inhibition ([9]; 0.5 mM): 0 millimeters; Antibacterial Cp zone of inhibition ([9]; 1 mM): 0 millimeters
c1ccc(OCc2nnc(-c3nc4ccccc4s3)o2)cc1 [HGN-840] | 0 | 0 | 0 | 0 | 0 | 0 | 0 | 0 | 16.5 | 0 millimeters | 0 millimeters | 0 | 0 | 14.5 | 0 | 0 | 0 | 0 | 0 | 0 | Antibacterial Bt zone of inhibition [1]: 0 14 17.5 millimeters; Antibacterial Ec zone of inhibition ([5]; 1 mM): 0 millimeters; Antibacterial Cp zone of inhibition ([9]; 0.1 mM): 0 millimeters; Antibacterial Cp zone of inhibition ([9]; 0.5 mM): 12 millimeters; Antibacterial Cp zone of inhibition ([9]; 1 mM): 19 millimeters

— patent publication US11026426B2, “Oxadiazole and phenol derivatives as antibacterial and/or herbicidal agents” (NORTHERN ILLINOIS RESEARCH FOUNDATION, priority 2017, dated 2021)
